Experimental data taken from patent publication US20250019520A1, “RELIEF PRECURSORS WITH ENHANCED STABILITY” (XSYS Germany GmbH, priority 2023, published 2025).

Key:
Type in all cases: physicochemical
[1] = Thermal melt stability: onset time of crosslinking by oscillatory rheology at 160° C., SBS-rubber based trial formulation; conditions: SBS-rubber based plate formulation with 1 wt % carbamate derivative, crude reaction mixture added without purification
Procedure: In the given examples, the amount of stabilizer was varied in the range of 0 to 6.5 parts by weight and the excess was counterbalanced by the amount of binder, respectively. The components were dissolved in a solvent, being toluene (also called methylbenzene) and heated under reflux to obtain a homogeneous solution (concentration in toluene: 45 wt. %).
The solution was then cast on a carrier sheet. The plate thickness was adjusted using a doctor blade with a gap of 3 mm distance to the carrier sheet (PET film with 175 μm thickness).
The solvent was allowed to evaporate at room temperature for 16 hours followed by heating at 65° C. for 4 hours. To allow digital imaging, a mask layer (ML) coated on a cover sheet (CL) was laminated on top of the relief precursor using an Excelam-Q laminator (GMP Deutschland GmbH, Germany). Lamination was carried out at a temperature of the heated roll of 110° C., a velocity of 8.8 mm/s, and at a gap of 1.5 mm. To finish the lamination, the cast plate was sandwiched between two aluminum plates and was kept at 65° C. for 3 h.
The thermal melt stability was assessed by recording the melt viscosity during heating. Crosslinking of the sample was recorded as an increase in viscosity. Oscillatory rheological measurements were carried out using a Kinexus lab+rheometer (Malvern Instruments Ltd., UK) under isothermal (T=160° C.) conditions. Data was recorded using the corresponding software rSPACE version 1.76 (Malvern Instruments Ltd., UK). […] Prior to measurement, any foils (e.g. the cover sheet) and mask layers were removed from the relief precursor. Measurements were carried out in oscillation single frequency mode. The frequency was set to 1 Hz. The gap between the parallel plates was set constant to the respective sample thickness. Data points were recorded every 15 s. The complex shear viscosity η* was monitored over time t. The “onset time of crosslinking” was identified as “the time when the difference quotient Δη*/Δt is ≥1 Pa, with Δt=15 s”. A higher onset time indicates a higher thermal stability and stability towards mechanical stress.
Reaction mixtures were used completely without purification and were simply added to the plate formulation during homogenization in toluene solution. The stoichiometric amount of the reactants was calculated in a way to obtain a concentration of 1 wt % carbamate derivative in the plate formulation, assuming full conversion of the reactants. […] The reaction was quenched with an excess ethanol (same volume as the reaction mixture) and added to the plate formulation in toluene solution. The procedure for production of the plate precursor was followed as mentioned above. The solution was cast on a carrier sheet and traces of THF/ethanol were evaporated together with toluene during the drying step of the plate precursor.

[2] = Thermal melt stability: onset time of crosslinking, SIS-rubber based formulation; conditions: 160° C.
Procedure: The thermal melt stability was assessed by recording the melt viscosity during heating. Crosslinking of the sample was recorded as an increase in viscosity. Oscillatory rheological measurements were carried out using a Kinexus lab+rheometer (Malvern Instruments Ltd., UK) under isothermal (T=160° C.) conditions. Data was recorded using the corresponding software rSPACE version 1.76 (Malvern Instruments Ltd., UK). As measurement geometry, parallel plates with a diameter of 2.5 cm of the upper plate were chosen. As sample, a disc of a relief precursor with a diameter of 2.5 cm was used. Prior to measurement, any foils (e.g. the cover sheet) and mask layers were removed from the relief precursor. Measurements were carried out in oscillation single frequency mode. The frequency was set to 1 Hz. The gap between the parallel plates was set constant to the respective sample thickness. Data points were recorded every 15 s. The complex shear viscosity η* was monitored over time t. The “onset time of crosslinking” was identified as “the time when the difference quotient Δη*/Δt is ≥1 Pa, with Δt=15 s”. A higher onset time indicates a higher thermal stability and stability towards mechanical stress.
In this example, another trial formulation based on a SIS tri-block copolymer was used. […]

[3] = Kneading trials at 180° C., onset of crosslinking seen as increase in torque; conditions: kneading at 180° C. for 60 min, SBS binder plus stabilizer
Procedure: Kneading trials were carried out using a ThermoFisher Scientifc Haake kneading device equipped with a Haake PolyLab OS RheoDrive 7 control unit, a Haake Rheomix 600 OS heating and kneading chamber with Roller Rotors R600. The torque and the sample temperature were recorded using the software PolySoft, version 2.1.0.1. For the measurement, a temperature of 180° C. was applied. The measurement was carried out for 60 min, respectively. The components were added to the kneading device as solids and were allowed to be mixed in the kneading device.
In the given sample, the amount of stabilizer was varied in the range of 0 to 1.0 parts by weight and the excess was counterbalanced by the amount of binder, respectively.
An increase in torque indicated the onset of crosslinking of the SBS-rubber due to insufficient stabilization. Without additional stabilizer, an increase in torque was observed within the first 10 min of measurement time. With BHT as stabilizer, an increase in torque was detected after 28 min of heating at 180° C. With ascorbyl palmitate, the best result was achieved, where crosslinking was observed after 50 min.

Row | Structure (SMILES) | Onset time t (Δη*/Δt ≥ 1 Pa)/min (OT) [1] [min] | Onset time t (Δη*/Δt ≥ 1 Pa)/min [2] [min] | Onset time t/min [3] [min]
1 | CCO[Si](CCCNC(=O)OCC(OC(=O)NCCC[Si](OCC)(OCC)OCC)C1OC(=O)C(O)=C1O)(OCC)OCC (stereo not drawn) [Entry 4, 1-(3,4-dihydroxy-5-oxo-2,5-dihydrofuran-2-yl) ethane-1,2-diyl bis((3-(triethoxysilyl)propyl) carbamate)] | 20 | – | –
2 | CCCCCCCCCCCCCCCCCCNC(=O)OCC(OC(=O)NCCCCCCCCCCCCCCCCCC)C1OC(=O)C(O)=C1O (stereo not drawn) [Entry 10, 1-(3,4-dihydroxy-5-oxo-2,5-dihydrofuran-2-yl) ethane-1,2-diyl bis(octadecylcarbamate)] | 6 | – | –
3 | CC(C)c1ccc(NC(=O)OCC(OC(=O)Nc2ccc(C(C)C)cc2)C2OC(=O)C(O)=C2O)cc1 (stereo not drawn) [Entry 11, 1-(3,4-dihydroxy-5-oxo-2,5-dihydrofuran-2-yl) ethane-1,2-diyl bis((4-isopropylphenyl) carbamate)] | 55 | – | –
4 | C=C(C)C(=O)OCCNC(=O)OCC(OC(=O)NCCOC(=O)C(=C)C)C1OC(=O)C(O)=C1O (stereo not drawn) [Entry 6, 6-(3,4-dihydroxy-5-oxo-2,5-dihydrofuran-2-yl)-4,9-dioxo-5,8-dioxa-3,10-diazadodecane-1,12-diyl bis(2-methylacrylate)] | 33 | – | –
5 | C=Cc1ccc(C(C)(C)NC(=O)OCC(OC(=O)NC(C)(C)c2ccc(C=C)cc2)C2OC(=O)C(O)=C2O)cc1 (stereo not drawn) [Entry 7, 1-(3,4-dihydroxy-5-oxo-2,5-dihydrofuran-2-yl) ethane-1,2-diyl bis((2-(4-vinylphenyl)propan-2-yl) carbamate)] | 24 | – | –
6 | CCCCNC(=O)OCC(OC(=O)NCCCC)C1OC(=O)C(O)=C1O (stereo not drawn) [Entry 1, 1-(3,4-dihydroxy-5-oxo-2,5-dihydrofuran-2-yl) ethane-1,2-diyl bis(butylcarbamate)] | 74 | – | –
7 | O=C(NCCc1ccccc1)OCC(OC(=O)NCCc1ccccc1)C1OC(=O)C(O)=C1O (stereo not drawn) [Entry 13, 1-(3,4-dihydroxy-5-oxo-2,5-dihydrofuran-2-yl) ethane-1,2-diyl bis(phenethylcarbamate)] | 6 | – | –
8 | Cc1cc(C(C)(C)C)c(O)c(C(C)(C)C)c1 [BHT, 2,6-di-tert-butyl-4-methylphenol, reference compound] | – | 16 | 28
9 | Cc1cccc(NC(=O)OCC(OC(=O)Nc2cccc(C)c2)C2OC(=O)C(O)=C2O)c1 (stereo not drawn) [Entry 12, 1-(3,4-dihydroxy-5-oxo-2,5-dihydrofuran-2-yl) ethane-1,2-diyl bis(m-tolylcarbamate)] | 33 | – | –
10 | C[Si](C)(C)NC(=O)OCC(OC(=O)N[Si](C)(C)C)C1OC(=O)C(O)=C1O (stereo not drawn) [Entry 9, 1-(3,4-dihydroxy-5-oxo-2,5-dihydrofuran-2-yl) ethane-1,2-diyl bis((trimethylsilyl) carbamate)] | 5 | – | –
11 | C=CCCCCCCCCCCNC(=O)OCC(OC(=O)NCCCCCCCCCCC=C)C1OC(=O)C(O)=C1O (stereo not drawn) [Entry 14, 1-(3,4-dihydroxy-5-oxo-2,5-dihydrofuran-2-yl) ethane-1,2-diyl bis(dodec-11-en-1-ylcarbamate)] | 44 | – | –
12 | CC(C)(C)NC(=O)OCC(OC(=O)NC(C)(C)C)C1OC(=O)C(O)=C1O (stereo not drawn) [Entry 5, 1-(3,4-dihydroxy-5-oxo-2,5-dihydrofuran-2-yl) ethane-1,2-diyl bis(tert-butylcarbamate)] | 34 | – | –
13 | O=C(NC1CCCCC1)OCC(OC(=O)NC1CCCCC1)C1OC(=O)C(O)=C1O (stereo not drawn) [Entry 8, 1-(3,4-dihydroxy-5-oxo-2,5-dihydrofuran-2-yl) ethane-1,2-diyl bis(cyclohexylcarbamate)] | 52 | – | –
14 | C=CC(=O)OCC(C)(COC(=O)C=C)NC(=O)OCC(OC(=O)NC(C)(COC(=O)C=C)COC(=O)C=C)C1OC(=O)C(O)=C1O (stereo not drawn) [Entry 17, 2-((8-((acryloyloxy)methyl)-3-(3,4-dihydroxy-5-oxo-2,5-dihydrofuran-2-yl)-8-methyl-6,11-dioxo-2,5,10-trioxa-7-azatridec-12-en-1-oyl)amino)-2-methylpropane-1,3-diyl diacrylate] | 6 | – | –
15 | Cc1ccc(S(=O)(=O)NC(=O)OCC(OC(=O)NS(=O)(=O)c2ccc(C)cc2)C2OC(=O)C(O)=C2O)cc1 (stereo not drawn) [Entry 2, 1-(3,4-dihydroxy-5-oxo-2,5-dihydrofuran-2-yl) ethane-1,2-diyl bis(tosylcarbamate)] | 5 | – | –
16 | O=C(Nc1ccccc1)OCC(OC(=O)Nc1ccccc1)C1OC(=O)C(O)=C1O (stereo not drawn) [Entry 3, 1-(3,4-dihydroxy-5-oxo-2,5-dihydrofuran-2-yl) ethane-1,2-diyl bis(phenylcarbamate)] | 51 | – | –
17 | O=C(Nc1cccc2ccccc12)OCC(OC(=O)Nc1cccc2ccccc12)C1OC(=O)C(O)=C1O (stereo not drawn) [Entry 15, 1-(3,4-dihydroxy-5-oxo-2,5-dihydrofuran-2-yl) ethane-1,2-diyl bis(naphthalen-1-ylcarbamate)] | 4 | – | –
